According to US11492335B2, “Aryl or heteroaryl triazolone derivatives or salts thereof, or pharmaceutical compositions comprising the same” (YUHAN CORPORATION, priority 2018, dated 2022):
Structures can show the parent of a compound that is named as a salt.

What was measured:
Type in all cases: biochemical
recombinant human VAP-1 = target: T1, recombinant human VAP-1 (Homo sapiens, UniProt Q16853); assay: Activity on recombinant human VAP-1, Amplex Red HRP-coupled hydrogen peroxide assay, benzylamine substrate; details: recombinant human VAP-1, benzylamine substrate, 30 min preincubation at 37° C.; read-out: Inhibitory Activity (IC50, nM) human VAP-1
T1 construct: purchased R&D systems
T1 sequence (Q16853 1-763): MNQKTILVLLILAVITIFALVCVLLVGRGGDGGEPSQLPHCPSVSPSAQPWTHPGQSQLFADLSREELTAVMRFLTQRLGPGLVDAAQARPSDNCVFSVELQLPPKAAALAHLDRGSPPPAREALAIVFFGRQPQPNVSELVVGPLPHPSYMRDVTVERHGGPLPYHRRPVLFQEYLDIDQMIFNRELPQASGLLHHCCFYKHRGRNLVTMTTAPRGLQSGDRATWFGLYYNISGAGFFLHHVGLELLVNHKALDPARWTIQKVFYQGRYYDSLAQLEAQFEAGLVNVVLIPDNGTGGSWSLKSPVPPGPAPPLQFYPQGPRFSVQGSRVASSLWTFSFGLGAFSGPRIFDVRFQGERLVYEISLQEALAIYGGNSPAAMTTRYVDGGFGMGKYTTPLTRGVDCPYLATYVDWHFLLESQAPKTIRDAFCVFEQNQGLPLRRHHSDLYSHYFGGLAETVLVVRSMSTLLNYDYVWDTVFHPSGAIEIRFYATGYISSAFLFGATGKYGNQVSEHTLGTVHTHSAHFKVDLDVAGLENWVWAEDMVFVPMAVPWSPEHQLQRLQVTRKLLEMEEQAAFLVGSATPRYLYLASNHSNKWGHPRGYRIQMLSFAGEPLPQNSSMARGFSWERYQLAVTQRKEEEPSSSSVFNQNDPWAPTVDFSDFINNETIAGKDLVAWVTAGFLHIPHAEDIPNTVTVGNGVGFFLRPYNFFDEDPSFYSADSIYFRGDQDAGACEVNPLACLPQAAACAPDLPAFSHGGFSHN
Method in brief: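 Compounds were preincubated with purified enzyme in 50 mM sodium phosphate pH 7.4 at 37 °C for 30 min, then 200 uM Amplex Red, 1 mM benzylamine and 1 U/mL HRP were added. Resorufin fluorescence (ex 544/em 590 nm) was followed over 1-2 h; IC50 came from 4-parameter fits of signal-rate inhibition.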

[1] = target: T2, recombinant human MAO-B (monoamine oxidase-B) (Homo sapiens, UniProt P27338); assay: Activity on recombinant human MAO-B, Amplex Red method, 1 mM benzylamine substrate; details: 1 mM benzylamine, read-out: Inhibitory Activity (IC50, nM) MAO-B
T2 construct: purchased Sigma-Aldrich
T2 sequence (P27338 1-520): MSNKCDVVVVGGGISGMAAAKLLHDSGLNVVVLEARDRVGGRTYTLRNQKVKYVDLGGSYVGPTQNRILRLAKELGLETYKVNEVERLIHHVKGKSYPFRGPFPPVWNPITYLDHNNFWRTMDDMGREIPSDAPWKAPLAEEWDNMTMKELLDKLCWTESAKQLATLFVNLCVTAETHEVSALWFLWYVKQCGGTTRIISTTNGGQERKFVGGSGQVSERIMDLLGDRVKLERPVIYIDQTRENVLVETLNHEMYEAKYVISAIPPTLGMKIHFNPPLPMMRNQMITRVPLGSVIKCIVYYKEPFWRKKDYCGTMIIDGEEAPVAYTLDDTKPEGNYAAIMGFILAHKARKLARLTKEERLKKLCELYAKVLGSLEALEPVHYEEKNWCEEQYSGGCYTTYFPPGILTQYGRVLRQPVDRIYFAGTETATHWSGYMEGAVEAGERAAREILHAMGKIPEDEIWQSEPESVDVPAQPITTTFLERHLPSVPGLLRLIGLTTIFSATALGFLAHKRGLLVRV
Method in brief: (§1)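 8-point, 1:3 dose-response, four-parameter logistic IC50 from reduction in fluorescence rate versus DMSO control. HRP/Amplex Red detection of H2O2 (ex 544, em 590 nm) after 30 min, 37 °C compound–enzyme preincubation in pH 7.4 phosphate buffer. MAO-A substrate: 0.5 mM tyramine; MAO-B: 1 mM benzylamine.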

[2] = target: T3, recombinant human DAO (diamine oxidase) (Homo sapiens, UniProt P19801); assay: Activity on recombinant human DAO, Amplex Red method, 1 mM putrescine substrate; details: recombinant human DAO, 1 mM putrescine, * = between 10 and 100 nM, ** = between 300 and 1000 nM; for IC50: read-out: Inhibitory Activity (IC50, nM) DAO
T3 construct: purchased R&D systems
T3 sequence (P19801 20-751): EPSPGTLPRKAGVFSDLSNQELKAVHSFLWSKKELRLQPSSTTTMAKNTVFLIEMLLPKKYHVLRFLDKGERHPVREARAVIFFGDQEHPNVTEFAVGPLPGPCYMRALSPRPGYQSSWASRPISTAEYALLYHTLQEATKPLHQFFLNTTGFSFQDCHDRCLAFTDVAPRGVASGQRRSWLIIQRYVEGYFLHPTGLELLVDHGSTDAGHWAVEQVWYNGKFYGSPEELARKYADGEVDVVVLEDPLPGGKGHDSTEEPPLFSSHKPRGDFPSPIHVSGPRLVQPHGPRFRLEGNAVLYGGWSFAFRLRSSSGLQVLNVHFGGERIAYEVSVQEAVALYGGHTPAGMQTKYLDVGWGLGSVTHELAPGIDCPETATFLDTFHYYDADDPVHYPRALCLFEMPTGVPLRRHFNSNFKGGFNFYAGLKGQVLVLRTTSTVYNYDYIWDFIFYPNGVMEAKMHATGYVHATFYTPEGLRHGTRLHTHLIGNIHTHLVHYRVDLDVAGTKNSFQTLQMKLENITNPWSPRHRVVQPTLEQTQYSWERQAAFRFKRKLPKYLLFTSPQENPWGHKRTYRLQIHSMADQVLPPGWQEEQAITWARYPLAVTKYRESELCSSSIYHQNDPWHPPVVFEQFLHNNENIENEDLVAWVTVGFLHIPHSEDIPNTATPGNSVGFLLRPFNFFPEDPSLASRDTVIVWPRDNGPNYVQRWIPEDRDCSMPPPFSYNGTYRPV
Method in brief: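 Inhibition of recombinant human DAO (diamine oxidase, R&D systems) was assessed with the Amplex Red Hydrogen Peroxide Assay Kit. Hydrogen peroxide produced from 1 mM putrescine was detected through an HRP-coupled reaction that converts Amplex Red into fluorescent resorufin, read at 544 nm excitation and 590 nm emission. IC50 values came from four-parameter logistic fits in GraphPad Prism.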

[3] = target: T4, recombinant human MAO-A (monoamine oxidase-A) (Homo sapiens, UniProt P21397); assay: Activity on recombinant human MAO-A, Amplex Red method, 0.5 mM tyramine substrate; details: 0.5 mM tyramine, read-out: Inhibitory Activity (IC50, nM) MAO-A
T4 construct: purchased Sigma-Aldrich
T4 sequence (P21397 1-527): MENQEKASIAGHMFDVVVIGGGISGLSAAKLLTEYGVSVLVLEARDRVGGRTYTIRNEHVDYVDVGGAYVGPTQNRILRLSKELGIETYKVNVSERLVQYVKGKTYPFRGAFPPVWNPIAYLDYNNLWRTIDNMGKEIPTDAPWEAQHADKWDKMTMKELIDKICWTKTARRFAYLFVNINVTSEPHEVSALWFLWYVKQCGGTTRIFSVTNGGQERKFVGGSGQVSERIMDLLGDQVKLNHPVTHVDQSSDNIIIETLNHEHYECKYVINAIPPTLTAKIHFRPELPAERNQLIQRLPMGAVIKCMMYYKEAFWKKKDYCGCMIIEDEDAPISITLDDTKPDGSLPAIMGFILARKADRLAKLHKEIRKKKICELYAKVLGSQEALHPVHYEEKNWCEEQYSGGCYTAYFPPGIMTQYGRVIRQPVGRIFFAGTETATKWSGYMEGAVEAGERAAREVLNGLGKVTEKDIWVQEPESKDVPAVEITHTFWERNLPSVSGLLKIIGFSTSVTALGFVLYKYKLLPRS
Method in brief: as §1

Row | Compound | IC50 (recombinant human VAP-1) | IC50 [1] | IC50 [2] | IC50 [3] | Inhibitory Activity (IC50, nM) DAO [2]
1 | NC/C(=C\F)Cn1ncn(-c2cccc(-c3ccc4sc(N)nc4c3)c2)c1=O [Example 99, 4-[3-(2-amino-1,3-benzothiazol-5-yl)phenyl]-2-[(2E)-2-(aminomethyl)-3-fluoroprop-2-en-1-yl]-2,4-dihydro-3H-1,2,4-triazol-3-one hydrochloride] | 0.82 nM | 6420 nM | < 100 nM | > 100000 nM | –
2 | Cc1cc(-c2cccc(-n3cnn(C/C(=C/F)CN)c3=O)c2)cc2c1NC(=O)CC2 [Example 102, 6-(3-{1-[(2E)-2-(aminomethyl)-3-fluoroprop-2-en-1-yl]-5-oxo-1,5-dihydro-4H-1,2,4-triazol-4-yl}phenyl)-8-methyl-3,4-dihydroquinolin-2(1H)-one hydrochloride] | 0.2 nM | > 10000 nM | 28 nM | > 100000 nM | –
3 | Cc1c(-c2ccc(S(C)(=O)=O)cc2)cccc1-n1cnn(C/C(=C/F)CN)c1=O [Example 106, 2-[(2E)-2-(aminomethyl)-3-fluoroprop-2-en-1-yl]-4-[2-methyl-4′-(methylsulfonyl)biphenyl-3-yl]-2,4-dihydro-3H-1,2,4-triazol-3-one] | 4.7 nM | > 10000 nM | 310 nM | > 100000 nM | –
4 | CC(=O)Nc1ccc(-c2cccc(-n3cnn(C/C(=C/F)CN)c3=O)c2C)cc1 [Example 107, N-(3′-{1-[(2E)-2-(aminomethyl)-3-fluoroprop-2-en-1-yl]-5-oxo-1,5-dihydro-4H-1,2,4-triazol-4-yl}-2′-methylbiphenyl-4-yl)acetamide] | 2.8 nM | > 10000 nM | – | > 100000 nM | no inhibitory
5 | Cc1cc(-n2cnn(C/C(=C/F)CN)c2=O)cnc1-c1ccc(-c2nc[nH]n2)cc1 [Example 115, 2-[(2E)-2-(aminomethyl)-3-fluoroprop-2-en-1-yl]-4-{5-methyl-6-[4-(1H-1,2,4-triazol-3-yl)phenyl]pyridin-3-yl}-2,4-dihydro-3H-1,2,4-triazol-3-one] | 1.5 nM | 980 nM | < 100 nM | > 100000 nM | –

Other lines, results leading:

Row | IC50 (recombinant human VAP-1) | IC50 [1] | IC50 [2] | IC50 [3] | Inhibitory Activity (IC50, nM) DAO [2] | Compound
6 | 4.7 nM | 9320 nM | 68 nM | 76400 nM | – | NC/C(=C\F)Cn1ncn(-c2cccc(-c3cccc4[nH]ccc34)c2)c1=O [Example 98, 2-[(2E)-2-(aminomethyl)-3-fluoroprop-2-en-1-yl]-4-[3-(1H-indol-4-yl)phenyl]-2,4-dihydro-3H-1,2,4-triazol-3-one hydrochloride]
7 | 0.92 nM | 162 nM | 27 nM | 39300 nM | – | NC/C(=C\F)Cn1ncn(-c2cccc(-c3c[nH]c4ccccc34)c2)c1=O [Example 100, 2-[(2E)-2-(aminomethyl)-3-fluoroprop-2-en-1-yl]-4-[3-(1H-indol-3-yl)phenyl]-2,4-dihydro-3H-1,2,4-triazol-3-one hydrochloride]
8 | 0.9 nM | 300 nM | 34 nM | 58000 nM | – | NC/C(=C\F)Cn1ncn(-c2cccc(-c3cc4ccccc4s3)c2)c1=O [Example 101, 2-[(2E)-2-(aminomethyl)-3-fluoroprop-2-en-1-yl]-4-[3-(1-benzothiophen-2-yl)phenyl]-2,4-dihydro-3H-1,2,4-triazol-3-one hydrochloride]
9 | 0.6 nM | 1200 nM | 2.5 nM | 26500 nM | – | NC/C(=C\F)Cn1ncn(-c2cccc(-c3ccc4c(c3)NC(=O)CO4)c2)c1=O [Example 103, 6-(3-{1-[(2E)-2-(aminomethyl)-3-fluoroprop-2-en-1-yl]-5-oxo-1,5-dihydro-4H-1,2,4-triazol-4-yl}phenyl)-2H-1,4-benzoxazin-3(4H)-one hydrochloride]
10 | 0.83 nM | 9640 nM | 180 nM | 65200 nM | – | Cc1ccc(-c2cccc(-n3cnn(C/C(=C/F)CN)c3=O)c2)c2cccnc12 [Example 105, 2-[(2E)-2-(aminomethyl)-3-fluoroprop-2-en-1-yl]-4-[3-(8-methylquinolin-5-yl)phenyl]-2,4-dihydro-3H-1,2,4-triazol-3-one hydrochloride]
11 | 2.2 nM | > 10000 nM | 3500 nM | > 100000 nM | – | Cc1c(-c2ccc(-c3ccon3)cc2)cccc1-n1cnn(C/C(=C/F)CN)c1=O [Example 108, 2-[(2E)-2-(aminomethyl)-3-fluoroprop-2-en-1-yl]-4-[2-methyl-4′-(1,2-oxazol-3-yl)biphenyl-3-yl]-2,4-dihydro-3H-1,2,4-triazol-3-one]
12 | 3.1 nM | > 10000 nM | – | > 100000 nM | no inhibitory | Cc1c(-c2ccc3sc(N)nc3c2)cccc1-n1cnn(C/C(=C/F)CN)c1=O [Example 114, 4-[3-(2-amino-1,3-benzothiazol-5-yl)-2-methylphenyl]-2-[(2E)-2-(aminomethyl)-3-fluoroprop-2-en-1-yl]-2,4-dihydro-3H-1,2,4-triazol-3-one]
